Test results as given in US6117975A, “Melanocortin receptor polypeptides MC-3, MC-4, and MC-5” (The Regents of the University of Michigan, priority 1996, dated 2000).

Columns and labels:
[1] = system: chimeric receptor cH2R/MC3R-3i; conditions: chimeric cH2R/MC3R-3i, Hepa cells
Description: (§1) Chimeric Receptor. […] The chimeric receptor (cH2R/MC3R-3i) was constructed by cassette mutation at the junction of the fifth and sixth transmembrane domains of cH2R. Six PCR primers were used to generate three DNA fragments which were subsequently ligated together. The three PCR-generated fragments consisted of 1) the 5' coding region of the cH2R receptor beginning just prior to the ATG codon and ending with the 3' end of the fifth transmembrane domain; 2) the portion of the MC3 receptor gene encoding its third intracytoplasmic loop; and 3) the 3' coding region of the cH2R beginning with that segment encoding the 5' end of the sixth transmembrane domain and ending slightly past the termination codon. The DNA fragments were cut with appropriate restriction enzymes at pre-engineered restriction sites designed so that the three fragments could be assembled together in only the correct alignment. Restriction sites were also designed to facilitate subcloning the chimeric receptor DNA into CMVneo and the sequencing vector M13. The nucleotide sequence of the CMVneo cH2R/MC3R-3i construct was confirmed prior to expression in Hepa cells.
(§2) cAMP Assays. A cAMP assay kit purchased from Amersham (TRK 432, Arlington Heights, Ill.) was employed. Transfected cells were grown to confluence in 12-well (2.4×1.7 cm) tissue culture plates. […]

[2] = target: T1, wild-type H2-histamine receptor (cH2R) (Canis lupus familiaris, UniProt P17124); conditions: Hepa cells
T1 sequence (P17124 whole entry): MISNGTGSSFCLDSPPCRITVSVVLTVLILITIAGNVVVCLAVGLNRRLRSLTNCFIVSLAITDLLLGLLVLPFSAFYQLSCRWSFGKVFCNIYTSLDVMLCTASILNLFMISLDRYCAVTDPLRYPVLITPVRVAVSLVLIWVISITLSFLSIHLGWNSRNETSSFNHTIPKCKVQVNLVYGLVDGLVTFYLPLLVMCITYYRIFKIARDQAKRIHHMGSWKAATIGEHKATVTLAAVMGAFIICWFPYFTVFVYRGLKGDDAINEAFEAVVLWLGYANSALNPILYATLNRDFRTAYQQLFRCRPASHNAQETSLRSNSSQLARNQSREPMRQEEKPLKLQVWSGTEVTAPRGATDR
Description: as §1, §2

[3] = target: T1, wild-type H2-histamine receptor (cH2R); conditions: Hepa cells; remark: listed apart in the source
Description: as §1
(§3) Inositol Phosphate (IP) Assays.

[4] = system: chimeric receptor cH2R/MC3R-3i; test: [3H] IP production in Hepa cells transfected with chimeric cH2R/hMC3R-3i; type: cell-based; conditions: chimeric cH2R/MC3R-3i, Hepa cells
Description: as §1, §3

NCCc1c[nH]cn1 [histamine]
cAMP dose-response (in words) [1]: monophasic cAMP dose-response curve
cAMP dose-response (in words) [2]: monophasic dose-dependent increases in both cAMP and [^3 H]-IP production
[3H]-IP production dose-response (in words) [3]: monophasic dose-dependent increases in both cAMP and [^3 H]-IP production
[3H]-IP production dose-response (in words) [4]: biphasic dose-response curve for [^3 H]-IP production
